Reference: US7691854B2, “Dihydropyridine derivatives for use as human neutrophil elastase inhibitors” (Bayer Schering Pharma Aktiengesellschaft, priority 2002, dated 2010)

target: T1, human neutrophil elastase (HNE) (Homo sapiens, UniProt P08246); test: In vitro inhibition of HNE using a fluorogenic peptide substrate (MeOSuc-Ala-Ala-Pro-Val-AMC); type: biochemical; conditions: 384 MTP format
T1 construct: purchased SERVA Electrophoresis GmbH, Heidelberg, Germany #20927.01
T1 sequence (P08246 30-267): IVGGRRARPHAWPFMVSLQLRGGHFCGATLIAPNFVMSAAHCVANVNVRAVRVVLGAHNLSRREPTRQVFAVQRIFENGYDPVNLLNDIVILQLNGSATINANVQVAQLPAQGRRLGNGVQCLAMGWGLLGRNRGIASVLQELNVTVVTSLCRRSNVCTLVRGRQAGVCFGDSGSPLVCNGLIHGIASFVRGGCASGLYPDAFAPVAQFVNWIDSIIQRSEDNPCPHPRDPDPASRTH
Protocol: I. In Vitro Enzyme Assays of Human Neutrophil Elastase (HNE)
• assay buffer: 0.1 M HEPES-NaOH buffer pH 7.4, 0.5 M NaCl, 0.1% (w/v) bovine serum albumin; • suitable concentration (see below) of HNE (18 U/mg lyophil., #20927.01, SERVA Electrophoresis GmbH, Heidelberg, Germany) in assay buffer; • suitable concentration (see below) of substrate in assay buffer; • suitable concentration of test compounds diluted with assay buffer from a 10 mM stock solution in DMSO.
In Vitro Inhibition of HNE Using a Fluorogenic Peptide Substrate (Continuous Read-Out Signal, 384 MTP Assay Format):
In this protocol, the elastase substrate MeOSuc-Ala-Ala-Pro-Val-AMC (#324740, Calbiochem-Novabiochem Corporation, Merck KGaA, Darmstadt, Germany) is used. The test solution is prepared by mixing 10 μl of test compound dilution, 20 μl of HNE enzyme dilution (final concentration 8-0.4 μU/ml, routinely 2.1 μU/ml) and 20 μl of substrate dilution (final concentration 1 mM-1 μM, routinely 20 μM), respectively. The solution is incubated for 0-2 hrs at 37° C. (routinely one hour). The fluorescence of the liberated AMC due to the enzymatic reaction is measured at 37° C. (TECAN spectra fluor plus plate reader). The rate of increase of the fluorescence (ex. 395 nm, em. 460 nm) is proportional to elastase activity. IC50 values are determined by RFU-versus-[I] plots. Km and Km(app.) values are determined by Lineweaver-Burk plots and converted to Ki values by Dixon plots.

Compound	IC50 [nM]
CCOC(=O)C1=C(C)N(c2cccc(C(F)(F)F)c2)C(N)=C(C(=O)OCC)C1c1ccc(C#N)cc1 (stereo not shown) [Example 2, Diethyl 2-amino-4-(4-cyanophenyl)-6-methyl-1-[3-(trifluoromethyl)phenyl]-1,4-dihydro-3,5-pyridine-dicarboxylate]	30
CC1=C(C#N)C(c2ccc(C#N)cc2)C(C(N)=O)=C(N)N1c1cccc(C(F)(F)F)c1 (stereo not shown) [Example 4, 2-Amino-5-cyano-4-(4-cyanophenyl)-6-methyl-1-[3-(trifluoromethyl)phenyl]-1,4-dihydro-3-pyridinecarboxamide]	27
CC(=O)C1=C(N)N(c2cccc(C(F)(F)F)c2)C(C)=C(C#N)C1c1ccc(C#N)cc1 (stereo not shown) [Example 12, 5-Acetyl-6-amino-4-(4-cyanophenyl)-2-methyl-1-[3-(trifluoromethyl)phenyl]-1,4-dihydro-3-pyridinecarbonitrile]	90
CCOC(=O)C1=C(N)N(c2cccc(C(F)(F)F)c2)C(COC)=C(C(=O)OC)C1c1ccc(C#N)cc1 (stereo not shown) [Example 25]	40
CCOC(=O)C1=C(C)N(c2cccc(C(F)(F)F)c2)C(N)=C(C(=O)OCC)C1c1ccc(Br)nc1 (stereo not shown) [Example 43]	800
CCNC(=O)NC1=C(C(=O)OCC)C(c2ccc(C#N)cc2)C(C(=O)OCC)=C(C)N1c1cccc(C(F)(F)F)c1 (stereo not shown) [Example 44, Diethyl 4-(4-cyanophenyl)-2-{[(ethylamino)carbonyl]amino}-6-methyl-1-[3-(trifluoromethyl)phenyl]-1,4-dihydro-3,5-pyridinedicarboxylate]	130
CCOC(=O)C1=C(C)N(c2cccc(C(F)(F)F)c2)C(N(C)C)=C(C(=O)OCC)C1c1ccc(C#N)cc1 (stereo not shown) [Example 47, Diethyl 4-(4-cyanophenyl)-2-(dimethylamino)-6-methyl-1-[3-(trifluoromethyl)-phenyl]-1,4-dihydro-3,5-pyridinedicarboxylate]	500
CCOC(=O)C1=C(C)N(c2cccc(C(F)(F)F)c2)C(N)=C(C2=NC(C)(C)CO2)C1c1ccc(C#N)cc1 (stereo not shown) [Example 50, Ethyl 6-amino-4-(4-cyanophenyl)-5-(4,4-dimethyl-4,5-dihydro-1,3-oxazol-2-yl)-2-methyl-1-[3-(trifluoromethyl)phenyl]-1,4-dihydro-3-pyridinecarboxylate]	10

system: human polymorphonuclear cells (PMNs); test: In vitro PMN elastolysis assay (tritiated elastin); type: cell-based; conditions: at 1.2 μM; n=3 different donors at 3.6×10^5 cells per well
Protocol: In Vitro PMN Elastolysis Assay:
This assay is used to determine the elastolytic potential of human polymorphonuclear cells (PMNs) and assess the proportion of degradation due to, neutrophil elastase [cf. Z. W. She et al., Am. J. Respir. Cell. Mol. Biol. 9, 386-392 (1993)].
Tritiated elastin, in suspension, is coated on to a 96 well plate at 10 μg per well. Test and reference [ZD-0892 (J. Med. Chem. 40, 1876-1885, 3173-3181 (1997), WO 95/21855) and α1 protease inhibitor (α1PI)] compounds are added to the wells at the appropriate concentrations. Human PMNs are separated from peripheral venous blood of healthy donors and resuspended in culture media. The neutrophils are added to the coated wells at concentrations ranging between 1×10^6 to 1×10^5 cells per well. Porcine pancreatic elastase (1.3 μM) is used as a positive control for the assay, and α1PI (1.2 μM) is used as the positive inhibitor of neutrophil elastase. The cellular control is PMNs without compound at each appropriate cell density. The cells plus compounds are incubated in a humidified incubator at 37° C. for 4 hours. The plates are centrifuged to allow the harvest of cell supernatant only. The supernatant is transferred in 75 μl volumes to corresponding wells of a 96 well Lumaplate™ (solid scintillant containing plates). The plates are dried until no liquid is visible in the wells and read in a beta counter for 3 minutes per well. […]

Compound	inhibition of elastolysis of 3H-elastin (mean±s.e.m.) [%]
α1PI: α1 protease inhibitor, reference and positive inhibitor of neutrophil elastase	83.46±3.97

same assay, conditions: n=2 different donors at 3.6×10^5 cells per well; read-out: IC50 (mean±s.e.m.)

Compound	IC50 [nM]
COc1ccc(C(=O)N[C@H](C(=O)N2CCC[C@H]2C(=O)N[C@H](C(=O)C(F)(F)F)C(C)C)C(C)C)cc1 [ZD-0892]	45.5 ± 7.75
